Results from US20230301909A1 (The University of Tokyo, priority 2020, published 2023).

Tested on: human placenta
Assay: Human placental perfusion model (ex vivo placental permeability)
Type: in vitro ADME
Conditions: FIG. 12A
Procedure: For this Example, the permeability of polymer micelles, low molecular compounds and polymers of different sizes through the human placenta was evaluated using a human placental perfusion model.
The human placental perfusion model was created according to NPL 4 (K. Shintaku et. al., Drug Metab. Dispos. 37 (2009) 962) and NPL 5 (J. R. Huston et. al., Clin, Pharmacol. Ther, 90 (2011) 67). […] DACH-platin encapsulating micelles (30 nm and 70 nm particle sizes) (DACH-platin dose: 85.4 mg/L), oxaliplatin (2.7 mg/L.) and Cy3-labeled 8-arm PEG (fluorescence intensity: 3,000 (RFU)) were perfused for 60 minutes, and 1 ml of each solution was recovered every 5 minutes from the vein on the fetus side. The platinum contents of the recovered samples from the oxaliplatin-and DACH-platin encapsulating micelle-administered groups were measured by inductively coupled […] mass spectrometry. The fluorescence intensities of the polymers were quantified by HPLC. […]
The human placental perfusion model was created according to NPL 4 (K. Shintaku et. al., Drug Metab. Dispos. 37 (2009) 962) and NPL 5 (J. R. Huston et. al., Clin. Pharmacol. Ther. 90 (2011) 67). […] The pH of the recovered sample was adjusted, releasing the nicotinamide, and the nicotinamide in the solution was measured by HPLC (detector: EXTREMA by JASCO Corp., column: TSKgel ODS-120H by Tosoh Corp., 1.9 μm). […]

O=C1[O][Pt]2([NH][C@@H]3CCCC[C@H]3[NH]2)[O]C1=O [oxaliplatin]
accumulation in the placenta (human placental perfusion): accumulation of oxaliplatin in the placenta | permeation through the placenta (perfused for 60 minutes, fetus-side vein samples): permeated the placenta
